In patent US11370774B2, “Substituted benzofuran, benzopyrrole, benzothiophene, and structurally related complement inhibitors” (BioCryst Pharmaceuticals, Inc., priority 2018, dated 2022) one finds IC50 data, which are given here for 26 compounds.

Some results are limits rather than exact numbers.

Factor D, sequence (P00746 26-253): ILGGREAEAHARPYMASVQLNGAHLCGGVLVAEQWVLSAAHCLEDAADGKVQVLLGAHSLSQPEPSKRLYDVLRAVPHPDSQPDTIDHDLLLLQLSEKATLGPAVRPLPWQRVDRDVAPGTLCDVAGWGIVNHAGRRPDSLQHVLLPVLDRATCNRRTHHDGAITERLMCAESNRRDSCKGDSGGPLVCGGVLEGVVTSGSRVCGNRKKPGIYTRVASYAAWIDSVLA

The target of this test is Factor D (Homo sapiens (Human), UniProt P00746). The experiment in a line: Factor D esterolytic assay (Z-Lys-SBzl substrate, DTNB, 405 nm). The following applies: Z-Lys-SBzl 1.29 mM, pH 7.5, 10% DMSO, tested a minimum of three times, read-out: Measured Ki (IC50) Value for Compounds: IC50. In kind it is biochemical. The procedure:
The IC50 value of a compound (i.e., the concentration of the compound that inhibits 50% of the enzymatic activity) was calculated according to the procedure reported in U.S. Pat. No. 6,653,340 B1, e.g., column 74 (incorporated by reference).
Specifically, the compounds were dissolved in a stock solution of DMSO at 10.0 or 100 mM. A portion of this stock solution was added to assay buffer in a final volume of 50 μL. Controls included buffer alone and enzyme solutions to which DMSO was added. Substrate was added to the reaction wells immediately or after incubation at room temperature. The reaction rates were measured spectrophotometrically by the generation of product at 405 nm for 600 sec. Background absorbance at 690 nm was measured and subtracted from the absorbance at 405 nm for each well.
The reaction rate for enzyme alone was compared to the rate of enzyme in the presence of inhibitor and the percent inhibition was calculated as shown below: Percent Inhibition=[Rate without inhibitor−Rate with inhibitor)/(Rate without inhibitor)]×100 Factor D Esterolytic Assay:
An established esterolytic assay for the measurement of Factor D activity and inhibition of Factor D activity was used (Kam, C. M.; McRae, B. J.; Harper, J. W.; Niemann, M. A.; Volanakis, J. E.; Powers, J. C. Human complement proteins D, C2, and B Active site mapping with peptide thioester substrates. J Biol. Chem. 1987, 262, 3444-3451). For this assay Z-Lys-SBzl, 1.29 mM (Kim, S.; Narayana, S. V. L; Volanakis, J. E. Mutational analysis of the substrate binding site of human complement Factor D. Biochemistry. 1994, 33, 14393-14399.) was used as the substrate for Factor D ([…]). Hydrolysis of this compound by Factor D liberated a free sulfhydryl group which is then reacted with 5,5′-dithiobis(2nitrobenzoic acid) producing an intense yellow color (Habeeb, A. F. S. A. Reaction of protein sulfhydryl groups with Ellman's Reagent. Methods in Enzymol. 1976, 25, 457-464). The assays were performed in 96 well microtiter plates and rates of hydrolysis were monitored at 405 nm on a Biotek Synergy H1 plate reader. Hydrolysis rates were reported as change in mOD/min. The assay was conducted in 100 mM HEPES, 500 mM NaCl, pH 7.5 containing 10% DMSO in a final volume of 50 μL per well.
An IC50, a compound concentration which inhibits 50% of the enzymatic activity, was calculated. Compounds in the examples were tested a minimum of three times.
As usually defined, the IC50 is the concentration needed to halve the response being measured. As for `CCOC(=O)Cc1ccccc1NC(=O)c1cc(-c2cccc(CN)c2)c2cn(CC3CC3)nc2c1` [Compound 11a, ethyl 2-(2-(4-(3-(aminomethyl)phenyl)-2-(cyclopropylmethyl)-2H-indazole-6-carboxamido)phenyl)acetate], the concentration for half-maximal inhibition (IC50) was above 10 µM.

Take `NCc1cccc(-c2cc(C(=O)Nc3ccccc3CC(=O)O)cc3nn(CC4CC4)cc23)c1` [Compound 11b, 2-(2-(4-(3-(aminomethyl)phenyl)-2-(cyclopropylmethyl)-2H-indazole-6-carboxamido)phenyl)acetic acid]: the concentration for half-maximal inhibition (IC50) is below 1 µM.

With `NCc1nccc(-c2cc(COc3ccccc3CC(=O)O)cc3[nH]ccc23)c1F` [Compound 12c, 2-(2-((4-(2-(aminomethyl)-3-fluoropyridin-4-yl)-1H-indol-6-yl)methoxy)phenyl)acetic acid], the IC50 is below 1 µM.

`NCc1cccc(-c2cc(C(=O)Nc3ccccc3CC(=O)O)cc3cccnc23)c1` [Compound 13c, 2-(2-(8-(3-(aminomethyl)phenyl)quinoline-6-carboxamido)phenyl)acetic acid]: the IC50 lay within 1 to 10 µM.

Turning to `CCOC(=O)Cc1ccccc1NC(=O)c1cc(-c2cccc(CN)c2)c2cc[nH]c2n1` [Compound 14c, ethyl 2-(2-(4-(3-(aminomethyl)phenyl)-1H-pyrrolo[2,3-b]pyridine-6-carboxamido)phenyl)acetate], the IC50 was above 10 µM.

As to `NCc1cccc(-c2cc(C(=O)Nc3ccccc3CC(=O)O)nc3[nH]ccc23)c1` [Compound 14d, 2-(2-(4-(3-(aminomethyl)phenyl)-1H-pyrrolo[2,3-b]pyridine-6-carboxamido)phenyl)acetic acid], the 50% inhibitory concentration (IC50) was in the range of 1 to 10 µM.

As for `CCOC(=O)Cc1ccccc1NC(=O)c1cc(-c2cccc(CN)c2)c2occc2c1` [Compound 15c, ethyl 2-(2-(7-(3-(aminomethyl)phenyl)benzofuran-5-carboxamido)phenyl)acetate], the IC50 was above 10 µM.

Take `NCc1cccc(-c2cc(C(=O)Nc3ccccc3CC(=O)O)cc3ccoc23)c1` [Compound 15d, 2-(2-(7-(3-(aminomethyl)phenyl)benzofuran-5-carboxamido)phenyl)acetic acid]: the 50% inhibitory concentration (IC50) was below 1 µM.

With `NCc1cccc(-c2nc(C(=O)Nc3ccccc3CC(=O)O)nc3c2ccn3CC2CC2)c1` [Compound 16i, 2-(2-(4-(3-(aminomethyl)phenyl)-7-(cyclopropylmethyl)-7H-pyrrolo[2,3-d]pyrimidine-2-carboxamido)phenyl)acetic acid], the concentration for half-maximal inhibition (IC50) is below 1 µM.

Turning to `NCc1cccc(-c2cc(C(=O)Nc3ccccc3CC(=O)O)cn3cnnc23)c1` [Compound 17c, 2-(2-(8-(3-(aminomethyl)phenyl)-[1,2,4]triazolo[4,3-a]pyridine-6-carboxamido)phenyl)acetic acid], the concentration for half-maximal inhibition (IC50) was above 10 µM.

Consider `NCc1cccc(-c2cc(C(=O)Nc3ccccc3CC(=O)O)cc3ccccc23)c1` [Compound 18f, 2-(2-(4-(3-(aminomethyl)phenyl)-2-naphthamido)phenyl)acetic acid], for which the IC50 was below 1 µM.

In the case of `NCc1cc(F)cc(-c2cc(C(=O)Nc3ccccc3CC(=O)O)cc3[nH]ccc23)c1` [Compound 19c, 2-(2-(4-(3-(aminomethyl)-5-fluorophenyl)-1H-indole-6-carboxamido)phenyl)acetic acid], the half-maximal inhibitory concentration (IC50) was below 1 µM.

For `NCc1cccc(-c2cc(C(=O)Nc3ccccc3CC(=O)O)c3ncnn3c2)c1` [Compound 20e, 2-(2-(6-(3-(aminomethyl)phenyl)-[1,2,4]triazolo[1,5-a]pyridine-8-carboxamido)phenyl)acetic acid], the 50% inhibitory concentration (IC50) is above 10 µM.

As for `NCc1cc(F)cc(-c2nc(C(=O)Nc3ccccc3CC(=O)O)c3cccn3n2)c1` [Compound 21d, 2-(2-(2-(3-(aminomethyl)-5-fluorophenyl)pyrrolo[2,1-f][1,2,4]triazine-4-carboxamido)phenyl)acetic acid], the IC50 was below 1 µM.

Turning to `NCc1cccc(-c2cc(COc3ccccc3CC(=O)O)cc3ccoc23)c1` [Compound 23e, 2-(2-((7-(3-(aminomethyl)phenyl)benzofuran-5-yl)methoxy)phenyl)acetic acid], the half-maximal inhibitory concentration (IC50) was below 1 µM.

Take `NCc1cccc(-c2cc(COc3ccccc3CC(=O)O)cc3oc(Cl)cc23)c1F` [Compound 24b, 2-(2-((4-(3-(aminomethyl)-2-fluorophenyl)-2-chlorobenzofuran-6-yl)methoxy)phenyl)acetic acid]: the IC50 is below 1 µM.

For `CCOC(=O)Cc1ccccc1OCc1nc(-c2cccc(CN)c2)nn2cccc12` [Compound 25c, ethyl 2-(2-((2-(3-(aminomethyl)phenyl)pyrrolo[2,1-f][1,2,4]triazin-4-yl)methoxy)phenyl)acetate], the IC50 lay within 1 to 10 µM.

For the compound `NCc1cccc(-c2nc(COc3ccccc3CC(=O)O)nc3c2ccn3CC2CC2)c1` [Compound 26d, 2-(2-((4-(3-(aminomethyl)phenyl)-7-(cyclopropylmethyl)-7H-pyrrolo[2,3-d]pyrimidin-2-yl)methoxy)phenyl)acetic acid], the IC50 was below 1 µM.

For the compound `NCc1cccc(-c2cc(C(=O)Nc3ccccc3CC(=O)O)c3nccn3n2)c1` [Compound 27f, 2-(2-(6-(3-(aminomethyl)phenyl)imidazo[1,2-b]pyridazine-8-carboxamido)phenyl)acetic acid], the half-maximal inhibitory concentration (IC50) is above 10 µM.

Consider `NCc1cccc(-c2nc(C(=O)Nc3ccccc3CC(=O)O)cc3ccoc23)c1` [Compound 28d, 2-(2-(7-(3-(aminomethyl)phenyl)furo[2,3-c]pyridine-5-carboxamido)phenyl)acetic acid], for which the IC50 was below 1 µM.

For the compound `C[C@H](N)c1cccc(-c2nc(C(=O)Nc3ccccc3CC(=O)O)c3cccn3n2)c1` [Compound 29d, (S)-2-(2-(2-(3-(1-aminoethyl)phenyl)pyrrolo[2,1-f][1,2,4]triazine-4-carboxamido)phenyl)acetic acid], the concentration for half-maximal inhibition (IC50) lay within 1 to 10 µM.

With `Cc1nc2cc(C(=O)Nc3ccccc3CC(=O)O)cc(-c3cccc(CN)c3)c2n1C` [Compound 30d, 2-(2-(7-(3-(aminomethyl)phenyl)-1,2-dimethyl-1H-benzo[d]imidazole-5-carboxamido)phenyl)acetic acid], the 50% inhibitory concentration (IC50) was above 10 µM.

Turning to `NCc1cccc(-c2nc(C(=O)Nc3ccccc3CC(=O)O)nc3ccsc23)c1` [Compound 31f, 2-(2-(4-(3-(aminomethyl)phenyl)thieno[3,2-d]pyrimidine-2-carboxamido)phenyl)acetic acid], the IC50 is below 1 µM.

For `NCc1cccc(-c2nc(C(=O)Nc3ccccc3CC(=O)O)nc3sccc23)c1` [Compound 32h, 2-(2-(4-(3-(aminomethyl)phenyl)thieno[2,3-d]pyrimidine-2-carboxamido)phenyl)acetic acid], the IC50 is below 1 µM.

As for `C[C@@H](N)c1cccc(-c2nc(C(=O)Nc3ccccc3CC(=O)O)c3cccn3n2)c1F` [Compound 33f, (R)-2-(2-(2-(3-(1-aminoethyl)-2-fluorophenyl)pyrrolo[2,1-f][1,2,4]triazine-4-carboxamido)phenyl)acetic acid], the IC50 was below 1 µM.

Consider `NCc1cccc(-c2nc(C(=O)Nc3ccccc3CC(=O)O)c3cccn3n2)c1F` [Compound 34f, 2-(2-(2-(3-(aminomethyl)-2-fluorophenyl)pyrrolo[2,1-f][1,2,4]triazine-4-carboxamido)phenyl)acetic acid], for which the concentration for half-maximal inhibition (IC50) is below 1 µM.
